Values after ≈ are worked out from the molar mass of the structure shown. Read-outs that look alike come from different tables or passages of the source.
Experiments:
[1] = tested on: Mycobacterium tuberculosis; conditions: relative to clofazimine; cited from earlier work
[2] = tested on: Mycobacterium tuberculosis H37Rv strains; assay: In vitro assay for antimicrobial susceptibility (microplate Alamar blue MIC); assay type: cell-based; conditions: Mycobacterium tuberculosis, H37RV, in vitro, Mycobacterium tuberculosis H37Rv strains; read-out: MIC (μg/mL) against H37Rv
[3] = tested on: H37Rv; assay: In vivo testing: mice infected intravenously with H37Rv, lung tissue CFU counts; set-up: species or system Male BALB/c mice; conditions: thirty days postinfection; for Log CFU (TBI treated): 20 mg/kg, gavage 5 times weekly, lung tissue CFU; for log reduction at 20 mg/kg: Mycobacterium tuberculosis, H37RV, iv, 720 h, versus untreated control, lung tissue, read-out: Log CFU Reduction (TBI treated)
Protocol: Male BALB/c mice (18˜20 g) were infected intravenously with 0.2 ml portions containing 1×10^5 CFU of H37Rv. One day after the infection, four mice were sacrificed and the numbers of CFU in the spleens and lungs were determined. Organs were removed and homogenized in Middlebrook 7H9 broth. To enumerate CFU, appropriate dilutions of the homogenates were plated onto Middlebrook 7H10 agar and colonies were counted after 3 to 4 weeks of incubation at 37° C. The remaining mice were allocated either to untreated groups or to various drug treated groups (six mice per group). The dose of every test compound was 20 mg/kg. The positive control groups were treated by isoniazid and clofazimine. The test compounds and clofazimine were administered by gavage 5 times weekly. Untreated mice were administered by gavage with CMC. Thirty days postinfection, both untreated and treated mice were sacrificed and lung tissue CFU counts were determined. The significance of the CFU count and organ weight difference was assessed by a two-tailed Student t test. P≦0.01 was considered significant.

[4] = tested on: tuberculosis; conditions: hamsters; cited from earlier work
[5] = tested on: tuberculosis; conditions: guinea pig model; cited from earlier work
[6] = tested on: tuberculosis; conditions: mice; cited from earlier work
[7] = in vivo; cited from earlier work
[8] = tested on: tuberculosis; conditions: monkey model; cited from earlier work

Structure (SMILES)	melting point [°C]	MIC [2] [µg/mL]	further results
CCN(CC)CCC/N=c1\cc2n(-c3ccc(Cl)c(Cl)c3)c3ccccc3nc-2cc1Nc1ccc(Cl)c(Cl)c1 [B4154]	–	–	in vitro activity [1]: improved in vitro activity
Clc1ccc(-n2c3c/c(=N\C4CCCCC4)c(Nc4cccnc4)cc-3nc3ccccc32)cc1 [TBI-422, 5-(4-Chlorophenyl)-3-cyclohexylimino-2-(3-pyridyl)amino-3,5-dihydrophenazine]	194 to 196	0.06 (≈ 0.125 µM)	–
CN1CCC(/N=c2\cc3n(-c4ccc(Cl)cc4)c4ccccc4nc-3cc2Nc2cccnc2)CC1 [TBI-427, 5-(4-Chlorophenyl)-3-(N-methyl-4-piperidyl)imino-2-(3-pyridyl)amino-3,5-dihydrophenazine]	198 to 200	0.125 (≈ 0.253 µM)	–
CN1CCC(C/N=c2\cc3n(-c4ccc(Cl)cc4)c4ccccc4nc-3cc2Nc2cccnc2)CC1 [TBI-428, 5-(4-Chlorophenyl)-3-(N-methyl-4-piperidylmethyl)imino-2-(3-pyridyl)amino-3,5-dihydrophenazine]	188 to 190	0.25 (≈ 0.491 µM)	–
Clc1ccc(-n2c3c/c(=N\C4CCOCC4)c(Nc4cccnc4)cc-3nc3ccccc32)cc1 [TBI-434, 5-(4-Chlorophenyl)-3-(4-tetrahydropyranyl)imino-2-(3-pyridyl)amino-3,5-dihydrophenazine]	215 to 217	0.03 (≈ 0.0622 µM)	–
CC(C)CN1CCC(/N=c2\cc3n(-c4ccc(Cl)cc4)c4ccccc4nc-3cc2Nc2cccnc2)CC1 [TBI-435, 5-(4-Chlorophenyl)-3-(N-isobutyl-4-piperidyl)imino-2-(3-pyridyl)amino-3,5-dihydrophenazine]	209 to 210	0.25 (≈ 0.465 µM)	–
COC1CCC(/N=c2\cc3n(-c4ccc(Cl)cc4)c4ccccc4nc-3cc2Nc2cccnc2)CC1 (stereo not drawn) [TBI-436, 5-(4-Chlorophenyl)-3-(4-methoxycyclohexyl)imino-2-(3-pyridyl)amino-3,5-dihydrophenazine]	228 to 230	0.03 (≈ 0.0588 µM)	–
Clc1ccc(-n2c3c/c(=N\C4CCN(C5CCCC5)CC4)c(Nc4cccnc4)cc-3nc3ccccc32)cc1 [TBI-437, 5-(4-Chlorophenyl)-3-(N-cyclopentyl-4-piperidyl)imino-2-(3-pyridyl)amino-3,5-dihydrophenazine]	170 to 172	0.125 (≈ 0.228 µM)	–
COc1ncccc1Nc1cc2nc3ccccc3n(-c3ccc(Br)cc3)c-2c/c1=N\C1CC1 [TBI-519, 5-(4-Bromophenyl)-3-cyclopropylimino-2-(2-methoxy-3-pyridyl)amino-3,5-dihydrophenazine]	217 to 218	0.015 (≈ 0.0293 µM)	–
CC(C)/N=c1\cc2n(-c3cccc(F)c3)c3ccccc3nc-2cc1Nc1cccnc1 [TBI-522, 5-(3-Fluorophenyl)-3-(1-methylethyl)imino-2-(3-pyridyl)amino-3,5-dihydrophenazine]	164 to 166	0.062 (≈ 0.146 µM)	–
CC(C)/N=c1\cc2n(-c3ccc(C(F)(F)F)cc3)c3ccccc3nc-2cc1Nc1cccnc1 [TBI-678, 5-(4-Trifluoromethylphenyl)-3-(1-methylethyl)imino-2-(3-pyridyl)amino-3,5-dihydrophenazine]	–	0.03 (≈ 0.0634 µM)	Log CFU (TBI treated) [3]: 5.82; log reduction at 20 mg/kg [3]: 3
COC1CCC(/N=c2\cc3n(-c4ccc(C(F)(F)F)cc4)c4ccccc4nc-3cc2Nc2cccnc2)CC1 (stereo not drawn) [TBI-688, 5-(4-Trifluoromethylphenyl)-3-(4-methoxycyclohexyl)imino-2-(3-pyridyl)amino-3,5-dihydrophenazine]	–	0.03 (≈ 0.0552 µM)	Log CFU (TBI treated) [3]: 5.99; log reduction at 20 mg/kg [3]: 2.83
COc1ncccc1Nc1cc2nc3ccccc3n(-c3ccc(F)cc3)c-2c/c1=N\C1CCC(OC)CC1 (stereo not drawn) [TBI-1002, 5-(4-Fluorophenyl)-3-(4-methoxycyclohexyl)imino-2-(2-methoxy-3-pyridyl)amino-3,5-dihydrophenazine]	–	0.016 (≈ 0.0306 µM)	Log CFU (TBI treated) [3]: 4.85; log reduction at 20 mg/kg [3]: 3.68
COc1ncccc1Nc1cc2nc3ccccc3n(-c3ccc(F)cc3)c-2c/c1=N\C1CC1 [TBI-1010, 5-(4-Fluorophenyl)-3-cyclopropylimino-2-(2-methoxy-3-pyridyl)amino-3,5-dihydrophenazine]	–	0.011 (≈ 0.0244 µM)	Log CFU (TBI treated) [3]: 4.86; log reduction at 20 mg/kg [3]: 3.67
CC(C)/N=c1\cc2n(-c3ccc(Cl)cc3)c3ccccc3nc-2cc1Nc1ccc(Cl)cc1 [clofazimine]	–	–	in vivo anti-TB activity [4]: demonstrated in vivo anti-TB activity; efficacy [5]: failed to show efficacy; in vivo anti-TB activity [6]: demonstrated in vivo anti-TB activity; half-life [7]: 70 days; efficacy [8]: failed to show efficacy
